Entries after “also recorded” stand apart in the source; their conditions may differ.
How the values were obtained:
FgaPT2 = FgaPT2 (Aspergillus fumigatus, UniProt Q50EL0); test: Substrate specificity of wild-type prenyltransferase FgaPT2 in vitro; type: biochemical; settings: pyrophosphate 3 mM, FgaPT2 200 μg/mL, Trp 1 mM
Procedure: Broad substrate specificity of the wild-type prenyltransferase FgaPT2 in vitro. Each chemically synthesized pyrophosphate (3 mM) was tested for activity with purified FgaPT2 (200 μg/mL) and Trp (1 mM). The product mixtures were analyzed by HR-LCMS to identify the mass ions consistent with the expected alkylated product. The substrate (Trp) and product peak areas were determined by high performance liquid chromatography (HPLC) at a detection wavelength of 269 nm, and the conversion was calculated. The results are illustrated in FIG. 56 and FIG. 57.

[1] = target: T1, isopentenyl phosphate kinase (IPK) (Thermoplasma acidophilum, UniProt Q9HLX1); test: NADH-coupled kinetic assay of IPK; settings: for kcat fold higher than that with IP: relative to natural substrate IP
T1 sequence (Q9HLX1 1-245): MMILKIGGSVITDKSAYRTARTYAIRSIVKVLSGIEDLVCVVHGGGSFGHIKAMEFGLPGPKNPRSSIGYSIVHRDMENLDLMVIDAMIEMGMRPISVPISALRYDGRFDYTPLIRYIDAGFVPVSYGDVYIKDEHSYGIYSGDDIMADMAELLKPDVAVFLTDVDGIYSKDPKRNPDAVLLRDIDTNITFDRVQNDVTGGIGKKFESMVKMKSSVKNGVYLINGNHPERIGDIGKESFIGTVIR
Procedure: (§1) The data was fitted to the Michaelis-Menten equation using SigmaPlot, and the kinetic parameters (kcat, Km, kcat/Km) extracted.
(§2) NADH-Coupled Kinetic Assays. NADH coupled assays were performed with purified enzymes. Reaction progress was monitored by absorbance at 340 nm at 30° C. in a 96-well plate using a Biotek Synergy 4 plate reader (Winooski, Vt.). 200 μL enzymatic mixtures contained 50 mM Tris (pH 8.0), 25 mM KCl, 2.5 mM MgCl2, 0.05 mM DTT, 1 mM ATP, 320 μM NADH, 400 μM phosphoenolpyruvate, 0.5 U pyruvate kinase, 0.7 U lactate dehydrogenase, and various amounts of substrate. Conditions were verified by doubling enzyme and verifying the initial rate was doubled as well.
(§3) Kinetics of IPK were done with purified enzyme using 0.09 μg of enzyme per well. Serial dilution was used to generate specific concentrations of substrates (3125, 1562, 781, 625, 391, 195, 98, 24, 12, and 3 μM). Each condition was performed in triplicate. Nonlinear regression was fitted using SigmaPlot (Systat Software Inc., San Jose, Calif., USA).

[2] = target: T1, isopentenyl phosphate kinase (IPK); type: biochemical; settings: overnight reaction
Procedure: Since the substrate scope of IPK has yet to be fully described, here IPK was tested against a wider panel of substrates. The IPK gene from T. acidophilum was codon optimized and subcloned into pET28a. Following expression in E. coli BL21 DE3, the enzyme was purified via metal-chelation affinity chromatography. Next, the substrate specificity of the enzyme was determined in vitro using a panel of synthesized alcohol monophosphates using low resolution mass spectrometry (FIG. 25). The availability of alcohol diphosphate byproducts (FIG. 23) conveniently served as product standards.
Assay for Initial Activity of Monophosphates with IPK. Fractions from the synthesis of the diphosphates on a 400 μmol scale containing the monophosphates were concentrated in vacuo and resuspended to 5 mg/mL in water. Enzymatic reaction mixtures contained 50 mM Tris (pH 8.0), 2.5 mM MgCl2, 0.05 mM DTT, 1 mM ATP, and 4.2 μg of enzyme in a 200 μL reaction with 40 μL of substrate (1 mg/mL final). A reaction mixture without enzyme was setup as a control. Reactions were incubated overnight at 37° C. and checked by low-resolution LC-MS for diphosphate product formation. Standards from the isolated diphosphates were used to confirm retention time and mass. Reactions with a >10% diphosphate generation as compared to the no enzyme control were selected for kinetic experiments. LC-MS experiments were conducted using a Shimadzu LC-MS 2020 single quadrupole instrument with a Phenomenex Kinetex UPLC C18 column (2.1×50 mm, […], 100 Å pores) column. 5 μL was injected onto and separated using a series of linear gradients developed from 0.1% formic acid in H2O (A) to 0.1% formic acid in acetonitrile (B) at 0.2 mL/min using the following protocol: 0-2.2 min, 95-1% A; 2.21-2.6 min, 1% A; 2.61-2.62 min, 1-95% A; 2.63-3.5 min, 95% A. Products of enzymatic reactions were verified by mass and comparison with diphosphate standards previously synthesized.

PhoN = test: Substrate specificity of wild-type PhoN, HR-LCMS; type: biochemical, Shigella flexneri; settings: alcohol 100 mM, PhoN 20 μg/mL, ATP 50 mM
Procedure: Broad substrate specificity of wild-type PhoN. Each commercially available alcohol (100 mM) was tested for activity with purified PhoN (20 μg/mL) and ATP (50 mM). The product mixtures were analyzed by high resolution liquid chromatography mass spectrometry (HR-LCMS) to quantify the conversion of alcohol to mono-phosphate. Quantification was achieved by the addition of an internal standard (either geranyl phosphate or cinnamyl monophosphate) at known fixed concentration. The results are illustrated in FIG. 54 and FIG. 55.

FgaPT2 M328G = FgaPT2 M328G (Aspergillus fumigatus, UniProt Q50EL0, M328G); test: Substrate specificity of FgaPT2 mutant M328G in vitro; type: biochemical; settings: pyrophosphate 3 mM, enzyme 350 μg/mL, Trp 1 mM
Procedure: Altered substrate specificity of the prenyltransferase FgaPT2 mutant M328G in vitro. Each chemically synthesized pyrophosphate (3 mM) was tested for activity with purified FgaPT2 M328 (350 μg/mL) and Trp (1 mM). […] The results are illustrated in FIG. 58 and FIG. 59.

CpaD I329G = CpaD I329G (Aspergillus oryzae, UniProt F5HN73, I329G); test: Substrate specificity of prenyltransferase mutant CpaD I329G in vitro; type: biochemical; settings: pyrophosphate 2 mM, cyclic dipeptide 1 mM, enzyme 1 mg/mL
Description: Altered substrate specificity of the prenyltransferase mutant CpaD 1329G in vitro. […] The results are illustrated in FIG. 62 and FIG. 63.

FtmPT1 M364G = FtmPT1 M364G (Aspergillus fumigatus, UniProt Q4WAW7, M364G); settings: pyrophosphate 2 mM, cyclic dipeptide 1 mM
Procedure: Each chemically synthesized pyrophosphate (2 mM) and cyclic dipeptide (1 mM) were tested for activity with purified FtmPT1 (100 mg/mL). […] The substrate (cyclic dipeptide) and product peak areas were determined by HPLC at a detection wavelength of 254 nm, and the conversion was calculated.

CpaD = CpaD (Aspergillus oryzae, UniProt F5HN73); test: Substrate specificity of prenyltransferase CpaD in vitro; type: biochemical; settings: pyrophosphate 0.3 mM, cyclic dipeptide 0.25 mM, CpaD 1 mg/mL
Procedure: Broad substrate specificity of the prenyltransferase CpaD in vitro. Each chemically synthesized pyrophosphate (0.3 mM) and cyclic dipeptide (0.25 mM) were tested for activity with purified CpaD (1 mg/mL). […] The results are illustrated in FIG. 60 and FIG. 61.

FtmPT1 = FtmPT1 (Aspergillus fumigatus, UniProt Q4WAW7); type: biochemical; settings: pyrophosphate 2 mM, cyclic dipeptide 1 mM
[3] = target: IspA, a farnesyl diphosphate synthase (FPPase) (Escherichia coli, UniProt P22939); settings: wild-type IspA, DMAPP as starter unit
[4] = tested on: lycopene production via the DXP pathway; test: Lycopene colorimetric reporter assay; type: cell-based; settings: Fs 0.5 μM; E. coli BL21Tuner(DE3) lycopene reporter strain expressing IPK
[5] = substrate: C=C(C)CCOP(=O)(O)O; test: purified protein, by the assay type; settings: other: IPK with monophosphorylated substrate, ± SD of the mean, 1 mM ATP, 30° C., pH 8.0
Procedure: as §1, §2, §3

[6] = substrate: CC(C)=CCOP(=O)(O)O; test: purified protein, by the assay type; settings: other: IPK with monophosphorylated substrate, ± SD of the mean, 1 mM ATP, 30° C., pH 8.0
Procedure: as §1, §2, §3

Sequence of FgaPT2 (Q50EL0 whole entry): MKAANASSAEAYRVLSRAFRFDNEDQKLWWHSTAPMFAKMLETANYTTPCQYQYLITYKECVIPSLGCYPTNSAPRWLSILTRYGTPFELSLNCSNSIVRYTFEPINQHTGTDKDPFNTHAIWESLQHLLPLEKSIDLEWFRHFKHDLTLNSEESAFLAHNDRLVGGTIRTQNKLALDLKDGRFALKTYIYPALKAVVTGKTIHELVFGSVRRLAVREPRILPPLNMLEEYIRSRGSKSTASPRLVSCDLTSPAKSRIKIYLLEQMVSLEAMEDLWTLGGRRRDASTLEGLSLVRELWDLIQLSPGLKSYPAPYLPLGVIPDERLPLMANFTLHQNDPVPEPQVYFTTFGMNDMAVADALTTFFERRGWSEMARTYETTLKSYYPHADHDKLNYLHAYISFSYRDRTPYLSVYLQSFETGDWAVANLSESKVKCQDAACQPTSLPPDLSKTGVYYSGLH
Sequence of IspA, a farnesyl diphosphate synthase (FPPase) (P22939 whole entry): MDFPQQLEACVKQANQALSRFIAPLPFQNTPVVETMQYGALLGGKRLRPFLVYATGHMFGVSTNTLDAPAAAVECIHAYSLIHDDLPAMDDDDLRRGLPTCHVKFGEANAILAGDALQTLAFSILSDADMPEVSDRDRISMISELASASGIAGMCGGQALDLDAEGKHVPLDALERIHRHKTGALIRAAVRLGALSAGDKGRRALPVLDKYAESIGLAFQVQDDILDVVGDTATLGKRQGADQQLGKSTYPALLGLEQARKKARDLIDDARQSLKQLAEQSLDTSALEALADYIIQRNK
Sequence of FgaPT2 M328G (Q50EL0 whole entry M328G): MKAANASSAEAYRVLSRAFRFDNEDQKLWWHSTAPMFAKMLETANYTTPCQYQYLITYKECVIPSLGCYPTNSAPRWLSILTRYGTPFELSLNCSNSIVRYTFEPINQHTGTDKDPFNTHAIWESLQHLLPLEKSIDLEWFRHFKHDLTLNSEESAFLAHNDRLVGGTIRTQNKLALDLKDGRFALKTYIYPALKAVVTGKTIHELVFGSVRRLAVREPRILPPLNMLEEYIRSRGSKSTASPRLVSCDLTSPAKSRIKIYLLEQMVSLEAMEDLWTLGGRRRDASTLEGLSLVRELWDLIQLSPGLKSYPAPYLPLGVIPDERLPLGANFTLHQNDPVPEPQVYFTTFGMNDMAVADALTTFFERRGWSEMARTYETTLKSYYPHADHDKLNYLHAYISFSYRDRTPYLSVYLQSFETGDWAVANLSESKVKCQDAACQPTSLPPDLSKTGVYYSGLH
Sequence of FtmPT1 M364G (Q4WAW7 whole entry M364G): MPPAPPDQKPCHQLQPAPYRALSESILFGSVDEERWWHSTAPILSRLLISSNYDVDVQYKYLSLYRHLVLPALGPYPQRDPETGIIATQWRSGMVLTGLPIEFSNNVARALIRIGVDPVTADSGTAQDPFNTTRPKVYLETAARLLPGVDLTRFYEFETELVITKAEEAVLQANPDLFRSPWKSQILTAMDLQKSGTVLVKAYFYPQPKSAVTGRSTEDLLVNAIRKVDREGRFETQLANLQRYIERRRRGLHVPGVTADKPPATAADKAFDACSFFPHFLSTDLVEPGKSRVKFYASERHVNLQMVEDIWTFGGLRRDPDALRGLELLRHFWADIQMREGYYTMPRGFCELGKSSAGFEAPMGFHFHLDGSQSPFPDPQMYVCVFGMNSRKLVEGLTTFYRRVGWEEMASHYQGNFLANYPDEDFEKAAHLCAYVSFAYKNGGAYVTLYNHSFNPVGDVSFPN
Sequence of CpaD I329G (F5HN73 whole entry I329G): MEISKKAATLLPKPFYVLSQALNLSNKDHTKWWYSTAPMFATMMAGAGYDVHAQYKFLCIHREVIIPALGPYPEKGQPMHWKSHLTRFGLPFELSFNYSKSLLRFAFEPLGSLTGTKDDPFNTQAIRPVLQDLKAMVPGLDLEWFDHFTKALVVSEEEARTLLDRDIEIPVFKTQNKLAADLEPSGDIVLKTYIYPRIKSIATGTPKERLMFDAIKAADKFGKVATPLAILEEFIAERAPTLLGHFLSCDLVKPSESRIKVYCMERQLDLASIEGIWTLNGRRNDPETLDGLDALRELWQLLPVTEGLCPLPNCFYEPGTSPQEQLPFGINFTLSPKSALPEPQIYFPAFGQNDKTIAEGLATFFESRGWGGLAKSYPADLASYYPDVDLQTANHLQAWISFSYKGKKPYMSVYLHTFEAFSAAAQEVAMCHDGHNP
Sequence of FtmPT1 (Q4WAW7 whole entry): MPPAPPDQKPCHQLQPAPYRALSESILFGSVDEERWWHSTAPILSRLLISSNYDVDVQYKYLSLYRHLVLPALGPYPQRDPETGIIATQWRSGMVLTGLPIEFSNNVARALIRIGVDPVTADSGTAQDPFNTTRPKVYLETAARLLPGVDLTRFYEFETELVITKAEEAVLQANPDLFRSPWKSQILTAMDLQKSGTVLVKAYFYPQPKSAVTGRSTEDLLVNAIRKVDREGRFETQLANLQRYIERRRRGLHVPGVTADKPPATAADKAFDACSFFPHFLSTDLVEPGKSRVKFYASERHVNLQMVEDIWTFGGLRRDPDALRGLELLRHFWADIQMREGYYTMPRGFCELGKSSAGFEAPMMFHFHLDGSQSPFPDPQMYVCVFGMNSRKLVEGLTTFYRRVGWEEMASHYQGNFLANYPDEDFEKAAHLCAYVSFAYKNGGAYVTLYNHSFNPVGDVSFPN
Sequence of CpaD (F5HN73 whole entry, species assumed): as the sequence (F5HN73 whole entry I329G) above, with G329I counted along it

## C=CCCCOP(=O)(O)O [Substrate 6]
FgaPT2
  FgaPT2-catalyzed alkylation of Trp: expected product detected: mass ions were detected by HR-LCMS consistent with the expected product
[1]; between 1 and 6
  fold drop in kcat/Km: 3 fold

## CC(C)=CCC/C(C)=C\COP(=O)(O)O [NP, neryl monophosphate]
[2]
  phosphorylation by IPK to the corresponding pyrophosphate, as judged by MS: did not result in detection of the corresponding pyrophosphate

## C#CCCCOP(=O)(O)O [Substrate 4]
PhoN
  PhoN-catalyzed phosphorylation of alcohol: expected product detected: mass ions were detected by HR-LCMS consistent with the expected product
FgaPT2 M328G
  FgaPT2 M328G-catalyzed alkylation of Trp: expected product detected: products detected by HPLC and confirmed by LR-LCMS
CpaD I329G
  CpaD I329G-catalyzed alkylation of cyclic dipeptide: expected product detected: products detected by HPLC and confirmed by LR-LCMS
FtmPT1 M364G
  FtmPT1 M364G-catalyzed alkylation of cyclic dipeptide: expected product detected: products detected by HPLC and confirmed by LR-LCMS

## CC(C)=CCC/C(C)=C\CC/C(C)=C\COP(=O)(O)O [FP, farnesyl monophosphate]
[2]
  phosphorylation by IPK to the corresponding pyrophosphate, as judged by MS: did not result in detection of the corresponding pyrophosphate

## C=CCC(C)OP(=O)(O)OP(=O)(O)O (stereo not shown) [Substrate 19]
PhoN
  PhoN-catalyzed phosphorylation of alcohol: expected product detected: mass ions were detected by HR-LCMS consistent with the expected product
FgaPT2
  FgaPT2-catalyzed alkylation of Trp: expected product detected: mass ions were detected by HR-LCMS consistent with the expected product
CpaD
  CpaD-catalyzed alkylation of cyclic dipeptide: expected product detected: products detected by HPLC and confirmed by LR-LCMS
FtmPT1
  FtmPT1-catalyzed alkylation of cyclic dipeptide: expected product detected: products detected by HPLC and confirmed by LR-LCMS

## C=C(C)COP(=O)(O)O [Substrate 5]
PhoN
  PhoN-catalyzed phosphorylation of alcohol: expected product detected: mass ions were detected by HR-LCMS consistent with the expected product

## O=P(O)(O)OP(=O)(O)OCc1cccnc1 [Substrate 32]
[3]
  use as extender unit in place of IPP (GPP analogue by LC-MS), words: did not serve as an extender unit

## CC(C)=CCC/C(C)=C/COP(=O)(O)O [GP, geranyl monophosphate]
[2]
  phosphorylation by IPK to the corresponding pyrophosphate, as judged by MS: did not result in detection of the corresponding pyrophosphate

## C=CCC(C)OP(=O)(O)O (stereo not shown) [Substrate 2]
PhoN
  PhoN-catalyzed phosphorylation of alcohol: expected product detected: mass ions were detected by HR-LCMS consistent with the expected product
CpaD
  CpaD-catalyzed alkylation of cyclic dipeptide: expected product detected: products detected by HPLC and confirmed by LR-LCMS
FtmPT1
  FtmPT1-catalyzed alkylation of cyclic dipeptide: expected product detected: products detected by HPLC and confirmed by LR-LCMS
[1]
  use as IPK substrate: detectable but kinetically irrelevant

## C=CCCOP(=O)(O)O [Substrate 1]
PhoN
  PhoN-catalyzed phosphorylation of alcohol: expected product detected: mass ions were detected by HR-LCMS consistent with the expected product
FgaPT2 M328G
  FgaPT2 M328G-catalyzed alkylation of Trp: expected product detected: products detected by HPLC and confirmed by LR-LCMS
CpaD I329G
  CpaD I329G-catalyzed alkylation of cyclic dipeptide: expected product detected: products detected by HPLC and confirmed by LR-LCMS
FtmPT1 M364G
  FtmPT1 M364G-catalyzed alkylation of cyclic dipeptide: expected product detected: products detected by HPLC and confirmed by LR-LCMS
[1]
  kcat fold higher than that with IP: 4.25 fold

## CCC/C=C/COP(=O)(O)O [Substrate 8]
FgaPT2
  FgaPT2-catalyzed alkylation of Trp: expected product detected: mass ions were detected by HR-LCMS consistent with the expected product
[1]; π-bond geometry of 7 switched from Z to E in 8
  fold decrease in kcat/Km: 17 fold

## CCC/C=C\COP(=O)(O)O [Substrate 7]
FgaPT2
  FgaPT2-catalyzed alkylation of Trp: expected product detected: mass ions were detected by HR-LCMS consistent with the expected product

## O=CN(O)CCCP(=O)(O)O [Fs, fosmidomycin]
[4]
  lycopene production: almost completely inhibited lycopene production

## C#CCCOP(=O)(O)O [Substrate 9]
PhoN
  PhoN-catalyzed phosphorylation of alcohol: expected product detected: mass ions were detected by HR-LCMS consistent with the expected product

## C=C(Br)CCOP(=O)(O)O [Substrate 3]
PhoN
  PhoN-catalyzed phosphorylation of alcohol: expected product detected: mass ions were detected by HR-LCMS consistent with the expected product
FgaPT2 M328G
  FgaPT2 M328G-catalyzed alkylation of Trp: expected product detected: products detected by HPLC and confirmed by LR-LCMS
CpaD I329G
  CpaD I329G-catalyzed alkylation of cyclic dipeptide: expected product detected: products detected by HPLC and confirmed by LR-LCMS
FtmPT1 M364G
  FtmPT1 M364G-catalyzed alkylation of cyclic dipeptide: expected product detected: products detected by HPLC and confirmed by LR-LCMS
[1]
  kcat fold higher than that with IP: 5.1 fold

## C=CCCCOP(=O)(O)O [Substrate 27]
[3]
  use as extender unit in place of IPP (GPP analogue by LC-MS), words: not utilized by IspA; also recorded: did not facilitate carbon-carbon bond formation; also recorded: did not serve as an extender unit
[1]; IPK with monophosphorylated substrate, ± SD of the mean
  kcat: 93.1 ± 2.67 s⁻¹
[1]; IPK with monophosphorylated substrate, ± SD of the mean, 1 mM ATP, 30° C.
  Km: 848 ± 57.9 µM

B1: isopentenyl phosphate kinase (IPK) (Thermoplasma acidophilum DSM 1728) (protein)
chain: MMILKIGGSVITDKSAYRTARTYAIRSIVKVLSGIEDLVCVVHGGGSFGHIKAMEFGLPGPKNPRSSIGYSIVHRDMENLDLMVIDAMIEMGMRPISVPISALRYDGRFDYTPLIRYIDAGFVPVSYGDVYIKDEHSYGIYSGDDIMADMAELLKPDVAVFLTDVDGIYSKDPKRNPDAVLLRDIDTNITFDRVQNDVTGGIGKKFESMVKMKSSVKNGVYLINGNHPERIGDIGKESFIGTVIR
[5]
  Km: 27.9 ± 4.37 µM
  kcat: 43.9 ± 1.1 s⁻¹
  kcat/Km: 1.5e+06 M⁻¹ s⁻¹
[6]
  Km: 134 ± 38.2 µM
  kcat: 32.7 ± 2.05 s⁻¹
  kcat/Km: 230000 M⁻¹ s⁻¹
